Reference: patent US20230285570A1, “THERAPEUTICALLY USEFUL CURE-PRO MOLECULES FOR E3 LIGASE MEDIATED DEGRADATION OF PROTEINS, AND METHODS OF MAKING AND USING THEM” (CORNELL UNIVERSITY, priority 2020, published 2023)
“Also recorded” adds a separate entry of the source.

Tests used:
Type in all cases: cell-based
BRD4 [1] = biological target: T1, BRD4 (Homo sapiens, UniProt O60885); experiment: CURE-PRO-mediated BRD4 degradation in HCT116 cells, WES (ProteinSimple); parameters: endogenous in cells; details: 1 μM-10 μM each
Method: (§1) All cell lines were purchased from ATCC or DSMZ and grown at 37° C. with 5% CO2. Human HeLa cells were cultured in complete growth medium (Dulbecco's modified Eagle's medium (DMEM) supplemented with 10% FBS); MCF7 cells were cultured in complete growth medium (Dulbecco's modified Eagle's medium (DMEM) supplemented with 10% FBS and 0.01 mg/ml human recombinant insulin (Sigma Aldrich); Namalwa and Ramos cells were cultured in complete growth medium (RPMI 1640 medium supplemented with 10% FBS); HCT116 and HT29 cells were cultured in complete growth medium (McCoy's 5a Medium supplemented with 10% FBS). For cellular degradation of BRD4 studies cells were seeded in a 12-well plate at 70-80% confluency, allowed to attach overnight, and incubated with the indicated compounds for the indicated time. When indicated, a 15-minute pretreatment with 10 μM pomalidomide, 10 μM VHL298, 10 μM Nutlin3a, 1 μM MG-132 or 1 μM Carfilzomib was performed before the addition of CURE-PROs. For washout studies, after CURE-PRO treatment, media was aspirated and incubated with complete medium for the indicated time before lysis.
(§2) WES Simple analysis was performed on WES system (ProteinSimple-Biotechne) according to the manufacturer's instructions. Total protein concentrations of cell lysates were determined by the Pierce BCA kit (Thermo Fisher). 3 μL of 0.3 μg/μL of the protein lysate was loaded onto a 12- to 230-kDa WES assay plate (ProteinSimple) where 300 nL sample was withdrawn through a capillary, subjected to electrophoretic separation of proteins by size, and followed by the simultaneous, HRP-based detection of proteins using the Anti-Rabbit Detection Module (Proteinsimple: #DM-001). The electropherograms were checked then the automatic peak detection was manually corrected if it was required.
(§3) HCT116 cells (3×10^6) were treated for 24 hours with the compounds solubilized in DMSO. Compounds were added at 1 μM-10 μM each. Standardized protein samples were electrophoresed and imaged as described in the WES ProteinSimple section above. FIGS. 59, 60, and 61 depict the concentration-dependence of CURE-PRO-mediated BRD4 degradation using MDM2 ligands.
as §3, with “62” for “59, 60,”, “63” for “61”
HCT116 cells (3×10^6) were treated for 24 hours with the compounds solubilized in DMSO. CURE-PRO monomers were added at 10 μM each and the proteasomal inhibitors at 1 μM. Standardized protein samples were electrophoresed and imaged as described in the WES ProteinSimple section above. FIG. 68 depicts the dependence of the proteasome for CURE-PRO-mediated BRD4 degradation.

BRD4 [2] = biological target: T1, BRD4; experiment: Summary of BRD4 degradation by CURE-PRO pairs, estimated from Western Blot or WES; parameters: endogenous in cells; details: for Degradation of BRD4, combination with MDM2 ligand 8314: Table 2, aryl-boronic acid BRD4 ligand + 8314
Method: (§4) Namalwa, Ramosm HeLa, MCF7, or HT29 HCT116 cells (2.5-3×10^6) were treated for 24 hours with the indicated compounds solubilized in DMSO. The cells were washed in ice-cold PBS and were then lysed in RIPA lysis buffer (150 mM NaCl, 5 mM EDTA, 1% NP-40, 0.5% sodium deoxycholate, 0.1% SDS, 50 mM Tris, pH 8.0.) with Roche protease inhibitor complete cocktail and phosphatase inhibitors (10 mM sodium fluoride, 10 mM sodium pyrophosphate, 1 mM sodium orthovanadate and 20 mM β-glycerophosphate). The total protein concentrations were determined by Bradford Protein Assay (Pierce) and 10-20 μg of protein was loaded onto 4-15% Tris-Glycine gradient gels (Biorad). After standard gel electrophoresis, the separated proteins were transferred to PVDF membrane by wet transfer. The immunoblots were then blocked for 1 hour in 5% skim milk in TBST or 5% BSA in TBST, according to manufacturer's instructions, before an overnight incubation at 4° C. with indicated antibodies and membranes. Membranes were then incubated with the appropriate horseradish peroxidase-conjugated secondary antibodies (1:5,000 dilution) for 1 h at room temperature and the bands were visualized using the Clarity Max Western ECL Substrate (Biorad) and the ChemiDoc Imaging System (Biorad). Signal was detected with ECL Western Blotting Substrate (Pierce) and X-ray film processed with a Konica SRX-101 X-ray film processor or captured by Bio-Rad's Chemidoc Imaging system.
as §2
(§5) A black check mark indicates efficacy of 30% to 70% or higher protein degradation.

BRD4 [3] = biological target: T1, BRD4; experiment: CURE-PRO-mediated BRD4 degradation in HeLa cells, Western blot; parameters: endogenous in cells; host or cells: HeLa; details: 24 h; for BRD4 degradation: 10 μM each
Method: as §1, §4
HeLa cells (2.5×10^6) were treated for 24 hours with the sample compounds solubilized in DMSO. Compounds were added at 1-10 μM each. Standardized protein samples were electrophoresed and imaged as described in the immunoblotting description above. FIGS. 6-18 depicts the CURE-PRO-mediated BRD4 degradation for BRD monomers (JQ1 derivatives comprising of catechol linkers), and CRBN ligands, 8048 and 8049 (pomalidomide derivatives comprising boronic acid linkers) combined in a 1:1 ratio.
HeLa cells (2.5×10^6) were treated for 24 hours with the compounds solubilized in DMSO. The compounds were added at 10 μM each. Standardized protein samples were electrophoresed and imaged as described in the immunoblotting section above. FIGS. 23-27 depicts the CURE-PRO-mediated BRD4 degradation for BRD monomers (JQ1 derivatives comprising of boronic acid linkers), and CRBN ligands, 8046, 8047 and 8066 (pomalidomide derivatives comprising diol linkers) combined in a 1:1 ratio.
HeLa cells (2.5×10^6) were treated for 24 hours with the compounds solubilized in DMSO. Compounds were added at 10 μM and 100 μM each. Standardized protein samples were electrophoresed and imaged as described in the immunoblotting section above.
HeLa cells (2.5×10^6) were treated for 24 hours with the compounds solubilized in DMSO. Compounds were added at 1 nM-1 μM each. […]

c-MYC [4] = biological target: T2, c-MYC (Homo sapiens, UniProt P01106); experiment: CURE-PRO-mediated c-MYC degradation in HT29 cells, Western blot; parameters: endogenous in cells; host or cells: HT29
Method: as §4
HT29 cells (2.5×10^6) were treated for 24 h with the compounds solubilized in DMSO. Compounds were added at 10 nM-10 μM each, as indicated in the description of the figures. Standardized protein samples were electrophoresed and imaged as described in the immunoblotting section above. c-MYC monomers (10058-F4 derivatives comprising catechol linkers), and CRBN ligands, 8048 and 8049 (pomalidomide derivatives comprising boronic acid linkers) combined in a 1:1 ratio.
HT29 cells (2.5×10^6) were treated for 24 h with the compounds solubilized in DMSO. Compounds were added at 100 nM-10 μM each.
(§6) HT29 cells (2.5×10^6) were treated for 24 h with the compounds solubilized in DMSO. Compounds were added at 100 nM-10 μM each. Standardized protein samples were electrophoresed and imaged as described in the immunoblotting section above. c-MYC monomer, MYC-E1, (a 10058-F4 derivative comprising boronic acid linkers), and CRBN ligands, 8046, 8047 and 8066 (pomalidomide derivatives comprising diol linkers) combined in a 1:1 ratio.
as §6, with “monomers, MYC-E6 (FIG. 90), MYC-E10 (FIG. 91), and MYC-E16 (FIG. 92) (10074-G5 derivatives” for “monomer, MYC-E1, (a 10058-F4 derivative”
(§7) HT29 cells (2.5×10^6) were treated for 24 h with the compounds solubilized in DMSO. Compounds were added at 10 nM-10 μM each. Standardized protein samples were electrophoresed and imaged as described in the immunoblotting section above. c-MYC monomer, MYC-N16 (FIG. 93) (10074-G5 derivatives comprising diol linkers), and VHL ligands, 8297 and 8298 (VH-298 derivatives comprising boronic acid linkers) were combined in a 1:1 ratio.
as §7, with “monomers, MYC-E7” for “monomer, MYC-N16”, “96), MYC-E10 (FIG. 97), and MYC-E17 (FIG. 98),” for “93)”, “boronic acid” for “diol”, “diol” for “boronic acid”

c-MYC [5] = biological target: T2, c-MYC; experiment: Summary of C-MYC degradation by CURE-PRO pairs, estimated from Western Blot or WES; parameters: endogenous in cells; host or cells: HT29
Method: as §4, §2, §5

[6] = 1:1 with MDM2 ligand 8313, HCT116, 24 h
[7] = 1:1 with MDM2 ligand 8314, HCT116, 24 h
[8] = 1:1 with CRBN ligand 8048, HT29, 24 h, 10 nM-10 μM each
[9] = c-MYC monomer alone, HT29, 24 h, 10 nM-10 μM

T2 sequence (P01106 whole entry): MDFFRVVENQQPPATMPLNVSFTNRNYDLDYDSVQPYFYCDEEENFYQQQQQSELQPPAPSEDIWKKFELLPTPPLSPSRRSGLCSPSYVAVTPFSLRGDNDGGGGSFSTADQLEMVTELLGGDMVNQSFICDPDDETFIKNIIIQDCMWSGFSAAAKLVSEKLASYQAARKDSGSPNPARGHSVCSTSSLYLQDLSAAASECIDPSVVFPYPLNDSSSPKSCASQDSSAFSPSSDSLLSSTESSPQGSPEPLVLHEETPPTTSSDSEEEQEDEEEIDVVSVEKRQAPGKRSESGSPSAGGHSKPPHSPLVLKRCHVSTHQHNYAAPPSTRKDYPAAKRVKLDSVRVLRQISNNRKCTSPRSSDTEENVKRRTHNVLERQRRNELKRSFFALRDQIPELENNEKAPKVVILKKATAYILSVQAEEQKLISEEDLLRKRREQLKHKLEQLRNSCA

COc1ccc2c(c1)C(c1ccc(Cl)cc1)=N[C@@H](CC(=O)NCCCCCNC(=O)c1cccc(B(O)O)c1)c1nnc(C)n1-2 [BRD-E8] was tested, and the BRD4 degradation (BRD4 [1]; [6]) was “had no effect on BRD4 protein levels”, the BRD4 degradation (BRD4 [1]; [7]) was “caused partial loss of the BRD4 protein; also recorded: Degradation is observed” and the “Degradation of BRD4, combination with CRBN ligand 8046” value (BRD4 [2]; Table 1, aryl-boronic acid BRD4 ligand + 8046) was “√ (A black check mark indicates efficacy of 30% to 70% or higher protein degradation)”. For the same molecule, the “Degradation of BRD4, combination with CRBN ligand 8066” value (BRD4 [2]; Table 1, aryl-boronic acid BRD4 ligand + 8066) was “√ (A black check mark indicates efficacy of 30% to 70% or higher protein degradation)”, the “Degradation of BRD4, combination with MDM2 ligand 8314” value (BRD4 [2]) was “√ (A black check mark indicates efficacy of 30% to 70% or higher protein degradation)” and the “concentration-dependent BRD4 degradation” value (BRD4 [3]; 1:1 with CRBN ligand 8046, HeLa, 1 nM-1 μM each) was “Degradation is observed at 100 nM and 1 μM”. The BRD4 expression (BRD4 [3]; BRD monomer alone, HeLa, 1 nM-1 μM) was “no change in expression is observed”, the BRD4 degradation (BRD4 [3]; co-treated 1:1 with CRBN ligand 8046, HeLa) was “causes degradation of BRD4; also recorded: Degradation is noted” and the BRD4 degradation (BRD4 [3]; co-treated 1:1 with CRBN ligand 8066, HeLa) was “causes degradation of BRD4; also recorded: Degradation is noted”.

COc1ccc2c(c1)C(c1ccc(Cl)cc1)=N[C@@H](CC(=O)NCCc1ccc(B(O)O)cc1)c1nnc(C)n1-2 [BRD-E14, (4-(2-(2-((4S)-6-(4-chlorophenyl)-8-methoxy-1-methyl-4H-benzo[f][1,2,4]triazolo[4,3-a][1,4]diazepin-4-yl)acetamido)ethyl)phenyl)boronic acid] was tested, and the BRD4 degradation (BRD4 [1]; [6]) was “had no effect on BRD4 protein levels”, the BRD4 degradation (BRD4 [1]; [7]) was “caused partial loss of the BRD4 protein; also recorded: Degradation is observed” and the “Degradation of BRD4, combination with CRBN ligand 8047” value (BRD4 [2]; Table 1, aryl-boronic acid BRD4 ligand + 8047) was “√ (A black check mark indicates efficacy of 30% to 70% or higher protein degradation)”. For the same molecule, the “Degradation of BRD4, combination with MDM2 ligand 8314” value (BRD4 [2]) was “√ (A black check mark indicates efficacy of 30% to 70% or higher protein degradation)”, the “Degradation of BRD4, combination with VHL ligand 8305” value (BRD4 [2]; Table 3, aryl-boronic acid BRD4 ligand + 8305) was “√ (A black check mark indicates efficacy of 30% to 70% or higher protein degradation)” and the BRD4 degradation (BRD4 [3]; co-treated 1:1 with CRBN ligand 8047, HeLa) was “causes degradation of BRD4; also recorded: Degradation is noted”.

For CCc1ccc(/C=C2\SC(=O)N(CC[C@H]3C[C@@H]4C[C@H]3[C@@H](O)[C@H]4O)C2=O)cc1 [MYC-N23], the c-MYC degradation (c-MYC [4]; [8]) was “caused c-MYC degradation”, the c-MYC degradation (c-MYC [4]; [9]) was “there is no degradation of c-MYC” and the “Degradation of C-MYC, combination with CRBN ligand 8049” value (c-MYC [5]; Table 10, aromatic 1,2-diol MYC ligand + 8049) was “√ (A black check mark indicates efficacy of 30% to 70% or higher protein degradation)”.

With CCc1ccc(/C=C2\CC(=O)N(CCNC(=O)[C@H]3C[C@@H]4C[C@H]3[C@@H](O)[C@H]4O)C2=O)cc1 [MYC-N29] the c-MYC degradation (c-MYC [4]; [8]) was “caused c-MYC degradation”, the c-MYC degradation (c-MYC [4]; [9]) was “there is no degradation of c-MYC” and the “Degradation of C-MYC, combination with CRBN ligand 8048” value (c-MYC [5]; Table 10, aromatic 1,2-diol MYC ligand + 8048) was “√ (A black check mark indicates efficacy of 30% to 70% or higher protein degradation)”.
